From the NIST ThermoML archive (doi:10.1021/je500918t)
± gives the expanded uncertainty stated by the source.

Legend:
[1] = Molar enthalpy of transition or fusion; conditions: Crystal; DSC
[2] = Crystal; DTA

Row | SMILES | Molar enthalpy of transition or fusion [1] [kJ/mol] | Normal melting temperature [2] [°C]
1 | Nc1ccc(S(=O)(=O)Nc2ccccc2Cl)c(Cl)c1 [4-amino-2-chloro-N-(2-chlorophenyl)benzenesulfonamide] | 51.4 ± 1.4 | 232 ± 0.5
2 | Nc1ccc(S(=O)(=O)Nc2ccc(Cl)cc2)c(Cl)c1 [4-amino-2-chloro-N-(4-chlorophenyl)benzenesulfonamide] | 34.9 ± 1.2 | 195.6 ± 0.5
3 | Cc1cc(N)ccc1S(=O)(=O)Nc1ccccc1[N+](=O)[O-] [4-amino-2-methyl-N-(2-nitrophenyl)benzenesulfonamide] | 40 ± 1.3 | 178.2 ± 0.5
4 | CCN(CC)S(=O)(=O)c1ccc(N)cc1 [4-amino-N,N-diethylbenzenesulfonamide] | 19.4 ± 1.1 | 105.7 ± 0.5
5 | CN(C)S(=O)(=O)c1ccc(N)cc1 [4-amino-N,N-dimethylbenzenesulfonamide] | 29.7 ± 1.2 | 171.5 ± 0.5
6 | Nc1ccc(S(=O)(=O)N(c2ccccc2)c2ccccc2)cc1 [4-amino-N,N-diphenylbenzenesulfonamide] | 35.1 ± 1.2 | 179.5 ± 0.5
7 | Nc1ccc(S(=O)(=O)Nc2cccc(Cl)c2Cl)cc1 [4-amino-N-(2,3-dichlorophenyl)benzenesulfonamide] | 40.9 ± 1.3 | 181.2 ± 0.5
8 | Nc1ccc(S(=O)(=O)Nc2cc(Cl)c(Cl)cc2Cl)cc1 [4-amino-N-(2,4,5-trichlorophenyl)benzenesulfonamide] | 39.7 ± 1.3 | 188.1 ± 0.5
9 | Nc1ccc(S(=O)(=O)Nc2cc(Cl)ccc2Cl)cc1 [4-amino-N-(2,5-dichlorophenyl)benzenesulfonamide] | 41.3 ± 1.3 | 172.8 ± 0.5
10 | Nc1ccc(S(=O)(=O)Nc2ccc([N+](=O)[O-])cc2Br)cc1 [4-amino-N-(2-bromo-4-nitrophenyl)benzenesulfonamide] | 39.6 ± 1.3 | 188 ± 0.5
11 | Cc1ccc(NS(=O)(=O)c2ccc(N)cc2)c(Cl)c1 [4-amino-N-(2-chloro-4-methylphenyl)benzenesulfonamide] | 31.7 ± 1.2 | 155.7 ± 0.5
12 | Cc1cc(N)ccc1S(=O)(=O)Nc1ccccc1Cl [4-amino-N-(2-chlorophenyl)-2-methylbenzenesulfonamide] | 47.3 ± 1.4 | 206.4 ± 0.5
13 | Cc1ccc(NS(=O)(=O)c2ccc(N)cc2)cc1Cl [4-amino-N-(3-chloro-4-methylphenyl)benzenesulfonamide] | 45.6 ± 1.3 | 204.5 ± 0.5
14 | Cc1cc(Cl)ccc1NS(=O)(=O)c1ccc(N)cc1 [4-amino-N-(4-chloro-2-methylphenyl)benzenesulfonamide] | 36.8 ± 1.2 | 149.6 ± 0.5
15 | Cc1cc(N)ccc1S(=O)(=O)Nc1ccc(Cl)cc1 [4-amino-N-(4-chlorophenyl)-2-methylbenzenesulfonamide] | 35.7 ± 1.2 | 173.4 ± 0.5
16 | Nc1ccc(S(=O)(=O)Nc2ccc(Cl)cc2)cc1 [4-amino-N-(4-chlorophenyl)benzenesulfonamide] | 23.8 ± 1.1 | 194.8 ± 0.5
17 | CCc1ccc(NS(=O)(=O)c2ccc(N)cc2)cc1 [4-amino-N-(4-ethylphenyl)benzenesulfonamide] | 36.3 ± 1.2 | 163.1 ± 0.5
18 | COc1ccc(NS(=O)(=O)c2ccc(N)cc2)cc1 [4-amino-N-(4-methoxyphenyl)benzenesulfonamide] | 38.6 ± 1.3 | 194.2 ± 0.5
19 | Cc1ccc(Cl)cc1NS(=O)(=O)c1ccc(N)cc1 [4-amino-N-(5-chloro-2-methylphenyl)benzenesulfonamide] | 36.8 ± 1.2 | 149.6 ± 0.5
20 | CNS(=O)(=O)c1ccc(N)cc1 [4-amino-N-methylbenzenesulfonamide] | 17.1 ± 1.1 | 109.1 ± 0.5
21 | O=[N+]([O-])c1ccc(S(=O)(=O)Nc2nccs2)cc1 [4-nitro-N-2-thiazolylbenzenesulfonamide] | 31.8 ± 1.2 | 256.6 ± 0.5
22 | O=S(=O)(Nc1cccc(Cl)c1Cl)c1ccccc1 [N-(2,3-dichlorophenyl)benzenesulfonamide] | 27.2 ± 1.1 | 114.1 ± 0.5
23 | O=S(=O)(Nc1ccccc1Cl)c1ccccc1 [N-(2-chlorophenyl)benzenesulfonamide] | 33.5 ± 1.2 | 125.1 ± 0.5
24 | O=[N+]([O-])c1ccccc1NS(=O)(=O)c1ccccc1 [N-(2-nitrophenyl)benzenesulfonamide] | 22.3 ± 1.1 | 98.7 ± 0.5
25 | O=S(=O)(Nc1ncccc1Cl)c1ccccc1 [N-(3-chloro-2-pyridinyl)benzenesulfonamide] | 28.1 ± 1.2 | 131.0 ± 0.5
26 | O=S(=O)(Nc1ccc(Cl)cc1)c1ccccc1 [N-(4-chlorophenyl)benzenesulfonamide] | 25.8 ± 1.1 | 121.5 ± 0.5
27 | Cc1ccc(NS(=O)(=O)c2ccc([N+](=O)[O-])cc2)nc1 [N-(5-methylpyridin-2-yl)-4-nitrobenzenesulfonamide] | 45.7 ± 1.3 | 161.0 ± 0.5
28 | CC(=O)Nc1ccncc1NS(=O)(=O)c1ccc([N+](=O)[O-])cc1 [N-[3-[[(4-nitrophenyl)sulfonyl]amino]-4-pyridinyl]-acetamide] | 41.4 ± 1.3 | 238.0 ± 0.5
29 | O=S(=O)(Nc1ccccc1)c1ccccc1 [N-phenylbenzenesulfonamide] | 23.5 ± 1.1 | 110.4 ± 0.5
30 | CCOC(=O)c1ccc(NS(=O)(=O)c2ccccc2)nc1 [ethyl 6-(phenylsulfonamido)nicotinate] | 22.5 ± 1.1 | 154.8 ± 0.5
